pIC50: −log10 of the molar value.
Columns and labels:
RAW 264.7 macrophages = test: NO production inhibition (Griess assay) in LPS-treated macrophages; type: cell-based; settings: LPS-induced
Description: Previous studies have reported that all three subtypes of PPAR inhibit inflammatory responses through inhibition of the activity and quantitative changes of the NF-κB transcription factor, a major regulator of inflammatory responses.
First, RAW 264.7 macrophages were cultured in a humidified atmosphere of 37° C. in a 5% CO2 incubator with DMEM containing 10% FBS and 1% penicillin/streptomycin. After inducing an inflammatory response in RAW 264.7 macrophages by LPS treatment, the Griess assay (Promega) was performed according to the manufacturer's instructions to measure the concentration of nitrite.

[1] = Body weight and organ weight after 12 weeks of treatment; type: in vivo, mouse; settings: DTMB 10 mg/kg orally, 12 weeks (3 months), versus vehicle-treated mice
Description: (§1) 5×FAD (Tg6799) mice were purchased from Jackson Laboratory (Bar Harbor, ME, USA), and male transgenic mice were mated with B6/SJL hybrid female mice. Genotyping was performed by PCR analysis of tail-cut samples. In this example, 8-week-old female mice were used for drug administration, and wild-type littermates were used as controls. All procedures related to animal behavior experiments were approved by the Institutional Animal Care and Use Committee of Pohang University of Science and Technology (POSTECH IACUC). All animal experiments were performed in accordance with the principles of the Animal Welfare Act, the PHS Animal Welfare Policy, and the NIH Guide for the Care and Use of Laboratory Animals. All mice were maintained under general conditions in the POSTECH animal facility according to institutional guidelines.
(§2) To evaluate the effect of DTMB on 5×FAD mice, DTMB (10 mg/kg) and vehicle (1% carboxymethylcellulose and 10% DMSO) were orally administered to four groups (wild type, wild type+DTMB, 5×FAD, and 5×FAD+DTMB) 6 days per week for 3 months.

[2] = tested on: 5×FAD Alzheimer's dementia-induced mice; test: Y maze test in 5×FAD mice; type: in vivo, mouse; settings: DTMB 10 mg/kg orally, 12 weeks
Description: as §1, §2
The measuring device consists of three branches, each of which is 42 cm long, 3 cm wide, and 12 cm high, and the angle at which the three branches folded is 120°. […] Alternation behavior is defined as entering all three branches without overlapping and was calculated using the following mathematical formula.

[3] = tested on: 5×FAD Alzheimer's dementia-induced mice; test: Immunohistochemistry of Aβ aggregates in brain tissue; type: in vivo, mouse; settings: hippocampus and cerebral cortex regions, 6e10 immunohistochemistry, 5×FAD mice, DTMB 10 mg/kg orally
Description: In the case of Alzheimer's dementia, an increase in the formation of Aβ aggregates in brain tissue is observed as a common pathological phenomenon. Therefore, to determine whether DTMB administration inhibited the formation of Aβ aggregates, the amount of AB aggregates in the hippocampus and cerebral cortex, which are closely related to memory ability, was measured using immunochemical staining in 5×FAD Alzheimer's dementia-induced mice.
The mice were perfused with ice-cold phosphate-buffered saline (PBS). The brain tissue was used separately for molecular analysis or immunohistochemistry. The right hemisphere was fixed with 4% PFA and transferred to a sucrose solution (30%) for 24 hours. The right hemisphere was frozen in the optimal cutting temperature compound of dry ice. Coronal sections (18 μm thick) including the hippocampus were cut and prepared on slide glass. The tissue sections were then permeabilized and blocked with blocking solution (5% goat serum and 0.2% Triton X-100 in PBS) for 1 h at room temperature. Primary antibody incubation was performed overnight at 4° C. using anti-6e10 antibody (Biolegend, Japan, 1:100). After washing, the sections were incubated with the appropriate secondary antibody (1:500) for 1 h at room temperature. […] Fluorescence was measured by calculating the % area and analyzed using ImageJ. […]

5×FAD mice = test: Aβ monomer Western blot and filter trap assay of brain lysates; type: in vivo, mouse; settings: brain tissue lysates, 6e10 Western blot
Description: To investigate the soluble and insoluble Aβ components, two extraction steps were performed. Left hemisphere samples were homogenized at a concentration of 100 mg/mL in cold Tris-buffered saline (TBS consisting of 50 mM Tris-pH 7.5 and 150 mM NaCl) with a protease inhibitor cocktail (Thermo Fisher Scientific, Waltham, MO, USA). After centrifugation at 15,000 rpm for 1 hour at 4° C., the supernatant of the sample was used for western blotting. Insoluble proteins were extracted from the pellet by dissolving in 5 M guanidine buffer (5 M guanidine HCl and 150 mM NaCl-pH 7.5). Soluble and insoluble protein samples were stored at −80° C.
The insoluble fraction of the protein lysate from 5×FAD mice was diluted in 1% SDS-PBS and boiled at 95° C. for 5 min. The membrane was pre-equilibrated with 1×TBS. A dot blotter apparatus (Bio-Rad Laboratories, Hercules, CA, USA) was used for sample application, and the 6e10 antibody was used to detect the Aβ content in the brain lysate from 5×FAD mice treated with DTMB. The sample size was 3 mice per group.

[4] = tested on: 5×FAD Alzheimer's dementia-induced mice; test: qPCR of proinflammatory cytokines in brain tissue; type: in vivo, mouse; settings: 5×FAD mice
From the text: The gene expression levels of proinflammatory cytokines and related enzymes (II-1B, Il-6, and iNOS) in the brain tissues of the DTMB-administered and non-administered groups of 5×FAD Alzheimer's dementia-induced mice were confirmed by qPCR.

COc1ccc(-c2cc(=O)oc3c(C)c(OC(=O)[C@H](Cc4c[nH]c5ccccc45)NC(=O)OC(C)(C)C)ccc23)cc1 [DTMB, [4-(4-Methoxyphenyl)-8-methyl-2-oxochromen-7-yl](2S)-3-(1H-indol-3-yl)-2-[(2-methylpropan-2-yl)oxycarbonylamino]propanoate]
NO production inhibition compared with PPAR modulators (RAW 264.7 macrophages; at the same concentration): more effectively than WY14643, a PPARα modulator, and rosiglitazone, a PPARγ modulator
pIC50 (RAW 264.7 macrophages; Mus musculus, RAW264.7, Griess reagent): 5.91
Body weight [1]: no change
Tissue weight [1]: no change
Alternation behavior (Y maze) [2]: increased statistically significantly
Amount of Aβ aggregates [3]: significantly reduced
Amyloid β monomers (5×FAD mice): not reduced
Expression level of Il-1β [4]: decreased
Expression level of Il-6 [4]: decreased
Expression level of iNOS [4]: decreased

Reference: patent US20260053778A1, “USE OF NOVEL PPAR ACTIVITY MODULATOR FOR PREVENTION, AMELIORATION OR TREATMENT OF DEGENERATIVE BRAIN DISEASES” (POSTECH RESEARCH AND BUSINESS DEVELOPMENT FOUNDATION, priority 2022, published 2026)
